Laboratory results from patent US20040170580A1, “Filtering suntan product” (priority 2001, published 2004).

Tested on: normal human keratinocyte/melanocyte cocultures
Assay: UV-induced melanogenesis by 14C-thiouracil incorporation related to amount of protein
Assay type: cell-based
Procedure: The protoprotective and propigmenting effect of the combination was tested on normal human keratinocyte/melanocyte cocultures according to the method described in patent FR 95/06491, by evaluating the UV-induced melanogenesis. The rate of melanin synthesis is evaluated through the incorporation of C^14-labeled thiouracil. It is related to the amount of protein.
Normal human keratinocytes (NHKs) and normal human melanocytes (NHMs) are cultured from foreskin. The two types of cell are amplified and stored frozen. Eight days before the test, each of the cell types is again placed in culture. The keratinocytes are cultured according to the method described by Rheinwald and Green (Cell (1975) 6, 331-334) on feeder cells (3T3 fibroblasts) in Green 7F growth medium (DMEM/F12, 3:1, 10% fetal calf serum (Gibco), 0.18 mM adenine, 10 ng/ml epidermal growth factor EGF, 0.4 μg/ml hydrocortisone, 5 μg/ml insulin, 10 μM isoproterenol, 5 μg/ml transferrin and 2 nM triiodothyronine). The melanocytes are amplified in M2 medium (Olsson, M. J. et al., Lancet (1992) 340, 981). The media are changed every two days.
3 days before the test, 250 000 normal human keratinocytes and 80 000 normal human melanocytes are mixed and seeded per well of 24-well plates (Costar type) and cultured for three days in the keratinocyte growth medium (Green 7F) without phenol red. During the following four days, the culture medium is replaced daily with UV medium (DMEM/F12, 3:1, without phenol red, 2% defined calf serum (HyClone), 10 ng/ml EGF, 10 ng/ml fibroblast growth factor type β (βFGF)).
The UV-induction of pigmentation is carried out by solar simulated radiation (SSR) using a 1 000 watt Oriel Xenon solar simulator comprising a 280-400 nm dichroic filter (Oriel, model 81035) and a Schott WG 320 filter having a wavelength cut-off of 311 nm (corresponding to a thickness of approximately 1.5 mm).
The cell cultures are irradiated once a day for 4 days in a phosphate buffer solution (PBS).
The propigmenting molecules are brought into contact with the cells in the PBS during the irradiation and added to the culture medium (UV medium) after irradiation.
The extract of Burnet is tested at 0.005%. It is prepared in a stock solution at 0.5% in a solvent (dimethyl sulfoxide, DMSO), which is added at a 1/1 000 dilution to the PBS and to the UV medium. The final concentration of the solvent in the culture medium is therefore 1/1 000.
The extract of Chrysanthemum sinensis obtained according to protocol Nos. 2+4 is tested at 1%.
The tyrosine, which serves as a positive control, is tested at 500 μM.
The Mexoryl SX® is tested at 8%.
After each exposure to UV radiation, the formulations containing the sunscreen are applied, in the proportion of 1.4 mg/cm^2, to a quartz slide on which there is a Transpore® strip, according to a method derived from that used to determine sun protection indices in vitro, described by Diffey and Robson (J Soc Cosmet Chemists (1989) 300, 230-235). The assembly is placed above the cocultures for the duration of the irradiation.
After irradiation, the cells are incubated in the UV medium containing 1 μCi/ml of C^14-labeled thiouracil.
Measurement of Melanogenesis:
The following controls are realized:
control culture: no product tested […]
24 hours after the final UV irradiation, the cells are rinsed in phosphate buffer. The proteins are precipitated with 5% trichloroacetic acid (TCA) and washed in order to remove the free radioactivity. […]

| SMILES | % variation in melanin synthesis compared to the control; A = 14CthioU/amount protein (%/control) (SSR irradiation + solvent (DMSO 1/1000), 8% Mexoryl SX formulation on quartz slide above the cocultures, no propigmenting agent) [%] | % variation in melanin synthesis compared to the control; A = 14CthioU/amount protein (%/control) (SSR irradiation once a day for 4 days, 8% Mexoryl SX formulation 1.4 mg/cm2 on quartz slide above the cocultures, no propigmenting agent, no solvent) [%] | % variation in melanin synthesis compared to the control; A = 14CthioU/amount protein (%/control) (SSR irradiation once a day for 4 days, no screening agent, tyrosine 500 μM, extract of Burnet 0.005% (DMSO solvent), extract of Chrysanthemum sinensis 1%) [%] | % variation in melanin synthesis compared to the control; A = 14CthioU/amount protein (%/control) (SSR irradiation screened by 8% Mexoryl SX formulation, in combination with propigmenting agent: tyrosine 500 μM, extract of Burnet 0.005% (DMSO solvent), extract of Chrysanthemum sinensis 1%) [%] | % variation in melanin synthesis compared to the control; A = 14CthioU/amount protein (%/control) (no irradiation, propigmenting agent alone: tyrosine 500 μM, extract of Burnet 0.005% (DMSO solvent 1/1000), extract of Chrysanthemum sinensis 1%) [%] |
| --- | --- | --- | --- | --- | --- |
| CC1(C)C2CCC1(CS(=O)(=O)O)C(=O)C2=Cc1ccc(C=C2C(=O)C3(CS(=O)(=O)O)CCC2C3(C)C)cc1 [Mexoryl SX ®] | 36 | 15 |  |  |  |
| N[C@@H](Cc1ccc(O)cc1)C(=O)O [tyrosine] |  |  | 382 | 74 | 40 |
